Like-named read-outs stand apart in the source and are kept apart here.
Assay: First-in-human phase 1 study: pharmacokinetics parameters of GDC-0853 (plasma) on day 1 and day 15
Type: in vivo
Conditions: for AUC(0-inf): read-out: Day 1 AUC0-inf Mean (%CV)
From the text: Table 3 Summary of pharmacokinetics parameters for GDC-0853 on day 1 and day 15 (cohorts 1, 2, and 3, with 100, 200, and 400-mg GDC-0853, respectively) | column: Day 1 T1/2 (hr) Mean (%CV); Day 1 Tmax^a (hr) Median (range); Day 1 Cmax (μM) Mean (%CV); Day 1 AUC0-inf (hr•μM) Mean (%CV); Day 1 AUC0-24 (hr*μM) Mean (%CV); Day 15 Tmax^a(hr) Median (range); Day 15 Cmax (μM) Mean (%CV); Day 15 AUC0- 24 (hr•μM) Mean (%CV); Day 15 Accumulation Ratio Mean (%CV)

- Day 15 Accumulation Ratio Mean (%CV) (100 mg (n = 6), cohort 1, day 15): 1.78 (58.4)
- Day 15 Accumulation Ratio Mean (%CV) (200 mg (n = 9), cohort 2, day 15): 1.44 (77.9)
- Day 15 Accumulation Ratio Mean (%CV) (400 mg (n = 9), cohort 3, day 15): 1.91 (102)
- Cmax (human, plasma, 100 mg, 100 mg (n = 6), cohort 1, day 1, plasma, read-out: Day 1 Cmax Mean (%CV)): 119 nM
- AUC(0-t) (human, plasma, 100 mg, 100 mg (n = 6), cohort 1, day 1, read-out: Day 1 AUC0-24 Mean (%CV)): 0.67 µM·h
- AUC(0-t) (human, plasma, 100 mg, 100 mg (n = 6), cohort 1, day 15, read-out: Day 15 AUC0-24 Mean (%CV)): 1.2 µM·h
- Cmax (human, plasma, 200 mg, 200 mg (n = 9), cohort 2, day 1, plasma, read-out: Day 1 Cmax Mean (%CV)): 571 nM
- AUC(0-t) (human, plasma, 200 mg, 200 mg (n = 9), cohort 2, day 1, read-out: Day 1 AUC0-24 Mean (%CV)): 2.54 µM·h
- Cmax (human, plasma, 200 mg, 200 mg (n = 9), cohort 2, day 15, plasma, read-out: Day 15 Cmax Mean (%CV)): 614 nM
- AUC(0-t) (human, plasma, 200 mg, 200 mg (n = 9), cohort 2, day 15, read-out: Day 15 AUC0-24 Mean (%CV)): 2.83 µM·h
- Cmax (human, plasma, 400 mg, 400 mg (n = 9), cohort 3, day 1, plasma, read-out: Day 1 Cmax Mean (%CV)): 1440 nM
- AUC(0-t) (human, plasma, 400 mg, 400 mg (n = 9), cohort 3, day 1, read-out: Day 1 AUC0-24 Mean (%CV)): 6.95 µM·h
- Cmax (human, plasma, 400 mg, 400 mg (n = 9), cohort 3, day 15, plasma, read-out: Day 15 Cmax Mean (%CV)): 1390 nM
- AUC(0-t) (human, plasma, 400 mg, 400 mg (n = 9), cohort 3, day 15, read-out: Day 15 AUC0-24 Mean (%CV)): 7.74 µM·h
- AUC(0-inf) (human, plasma, 100 mg (n = 6), cohort 1, day 1): 0.861 µM·h
- AUC(0-inf) (human, plasma, 200 mg (n = 9), cohort 2, day 1): 3.42 µM·h
- Tmax (human, plasma, 200 mg (n = 9), cohort 2, day 15, read-out: Day 15 Tmax Median (range)): 2.1 h
- AUC(0-inf) (human, plasma, 400 mg (n = 9), cohort 3, day 1): 7.57 µM·h
Compound: C[C@H]1CN(C2COC2)CCN1c1ccc(Nc2cc(-c3ccnc(N4CCn5c(cc6c5CC(C)(C)C6)C4=O)c3CO)cn(C)c2=O)nc1 [GDC-0853]
